Data from ChEMBL document CHEMBL1201862, “PubChem BioAssay data set” (2004).
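In this assay, cells in 96-well plates receive the compound at five concentrations for 48 hours. Endpoints are linearly interpolated between the surrounding concentrations. Abbreviation: GI50, concentration required for 50% inhibition of growth.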 Activity calls are given as the source filed them. Rule as the data show it: active = GI50 up to about 1.1 µM and inactive = higher.

Tests used:
Assay in all cases: DTP human tumour cell line panel, 48 h
OVCAR-8 = test system: OVCAR-8
RXF 393 = test system: RXF 393
MCF7 = test system: MCF7
HT-29 = test system: HT-29
A549 = test system: A549
UACC-257 = test system: UACC-257
NCI-H522 = test system: NCI-H522
SK-MEL-28 = test system: SK-MEL-28
MDA-MB-435 = test system: MDA-MB-435
NCI-H226 = test system: NCI-H226
SK-OV-3 = test system: SK-OV-3
HCT-116 = test system: HCT-116
TK-10 = test system: TK-10
SNB-75 = test system: SNB-75
786-0 = test system: 786-0
EKVX = test system: EKVX
SW-620 = test system: SW-620
SF-539 = test system: SF-539
DMS-273 = test system: DMS-273

Compound	GI50 (OVCAR-8)	GI50 (RXF 393)	GI50 (MCF7)	GI50 (HT-29)	GI50 (A549)	GI50 (UACC-257)	GI50 (NCI-H522)	GI50 (SK-MEL-28)	GI50 (MDA-MB-435)	GI50 (NCI-H226)	GI50 (SK-OV-3)	GI50 (HCT-116)	GI50 (TK-10)	GI50 (SNB-75)	GI50 (786-0)	GI50 (EKVX)	GI50 (SW-620)	GI50 (SF-539)	GI50 (DMS-273)
COc1cc2c(OC)c(c1)CCCC1=CC(=O)C=C(CCC2)C1=O	20.4 µM (inactive)	26.7 µM (inactive)	39 µM (inactive)	44.9 µM (inactive)	58.7 µM (inactive)	35 µM (inactive)	21 µM (inactive)	54.2 µM (inactive)	23.8 µM (inactive)	> 100 µM (inactive)	56.9 µM (inactive)	17.1 µM (inactive)	> 100 µM (inactive)	> 60.3 µM (inactive)	29 µM (inactive)	41.1 µM (inactive)	32.1 µM (inactive)	35.6 µM (inactive)	
O=C1CCC(=O)C1=NNc1cc(Cl)cc(Cl)c1	> 100 µM (inactive)	> 100 µM (inactive)		> 100 µM (inactive)	> 100 µM (inactive)	> 100 µM (inactive)		> 100 µM (inactive)		> 100 µM (inactive)	> 100 µM (inactive)	76.4 µM (inactive)	> 100 µM (inactive)	> 100 µM (inactive)	> 100 µM (inactive)	> 100 µM (inactive)	> 100 µM (inactive)	> 100 µM (inactive)	> 100 µM (inactive)
O=C(Nc1ccccc1[N+](=O)[O-])/C(=N/Nc1cccc(Cl)c1)c1c(O)c2ccccc2oc1=O		> 100 µM (inactive)		> 100 µM (inactive)	> 100 µM (inactive)	41.2 µM (inactive)	30.5 µM (inactive)	> 100 µM (inactive)		> 100 µM (inactive)	> 100 µM (inactive)	22.9 µM (inactive)	> 100 µM (inactive)	> 100 µM (inactive)	> 100 µM (inactive)	> 100 µM (inactive)	40.9 µM (inactive)	> 100 µM (inactive)	29.6 µM (inactive)
O=[N+]([O-])c1ccc(N2CCC(CCCC3CCN(c4ccc([N+](=O)[O-])cc4[N+](=O)[O-])CC3)CC2)c([N+](=O)[O-])c1	16.1 µM (inactive)	15.3 µM (inactive)	14.2 µM (inactive)	8.11 µM (inactive)	16.4 µM (inactive)	14.6 µM (inactive)	18.2 µM (inactive)	12.7 µM (inactive)	13.9 µM (inactive)	25.6 µM (inactive)	18.5 µM (inactive)	26.5 µM (inactive)	16.9 µM (inactive)	14.7 µM (inactive)	14.5 µM (inactive)	15.8 µM (inactive)	19.9 µM (inactive)	18.4 µM (inactive)	
CCOC(=O)Nc1nn[nH]c1Cl	> 100 µM (inactive)	> 100 µM (inactive)	> 100 µM (inactive)	> 100 µM (inactive)	> 100 µM (inactive)	> 100 µM (inactive)	> 100 µM (inactive)	> 100 µM (inactive)	> 100 µM (inactive)	> 100 µM (inactive)	> 100 µM (inactive)	> 100 µM (inactive)	> 100 µM (inactive)	> 100 µM (inactive)	> 100 µM (inactive)	> 100 µM (inactive)	> 100 µM (inactive)	> 100 µM (inactive)	
COc1ccc2c(c1)C(N)CC2=O (stereo not drawn)	> 100 µM (inactive)	19 µM (inactive)	> 100 µM (inactive)	> 100 µM (inactive)	19.1 µM (inactive)	> 100 µM (inactive)	> 100 µM (inactive)	> 100 µM (inactive)	> 100 µM (inactive)	> 100 µM (inactive)	> 100 µM (inactive)	> 100 µM (inactive)	> 100 µM (inactive)	> 100 µM (inactive)	> 100 µM (inactive)	> 100 µM (inactive)	> 100 µM (inactive)	> 100 µM (inactive)	
CCCC(=O)Nc1cc(C(=O)N2C[C@@H]3C[C@]34C2=CC(=O)c2[nH]cc(C)c24)n(COC)c1	1.94 µM (inactive)	1.84 µM (inactive)	1.36 µM (inactive)	8.55 µM (inactive)	9.75 µM (inactive)	9.79 µM (inactive)	0.977 µM (active)	7.48 µM (inactive)	9.06 µM (inactive)	11.2 µM (inactive)	16.3 µM (inactive)	7.87 µM (inactive)	10.7 µM (inactive)	7.36 µM (inactive)	5.47 µM (inactive)	12.6 µM (inactive)	1.62 µM (inactive)	7.06 µM (inactive)	
N#CC(C#N)=C1SC(=N\c2ccccc2)/C(=N/c2ccccc2)N1c1ccccc1	22.6 µM (inactive)	11 µM (inactive)	13.4 µM (inactive)	24.2 µM (inactive)	58.9 µM (inactive)	15.7 µM (inactive)	1.94 µM (inactive)	22 µM (inactive)	10.6 µM (inactive)	23.4 µM (inactive)	> 100 µM (inactive)	14.4 µM (inactive)	44.1 µM (inactive)	30 µM (inactive)	14.8 µM (inactive)	36.6 µM (inactive)	3.28 µM (inactive)	10.1 µM (inactive)	
CCOC(=O)C12CCCC1(O)N(NC(=O)c1ccccc1)C(C)=C2C(=O)OC (stereo not drawn)	> 100 µM (inactive)			> 100 µM (inactive)	> 100 µM (inactive)	> 100 µM (inactive)	> 100 µM (inactive)			> 100 µM (inactive)	> 100 µM (inactive)	> 100 µM (inactive)	> 100 µM (inactive)		> 100 µM (inactive)	> 100 µM (inactive)	> 100 µM (inactive)	> 100 µM (inactive)	> 100 µM (inactive)
CCOC(=O)NC(Nc1cccc(F)c1)(C(F)(F)F)C(F)(F)F	> 100 µM (inactive)	> 100 µM (inactive)	> 100 µM (inactive)	> 100 µM (inactive)	> 100 µM (inactive)	> 100 µM (inactive)	> 100 µM (inactive)	> 100 µM (inactive)	> 100 µM (inactive)	> 100 µM (inactive)	> 100 µM (inactive)	> 100 µM (inactive)	> 100 µM (inactive)	> 100 µM (inactive)	> 100 µM (inactive)	> 100 µM (inactive)	> 100 µM (inactive)	> 100 µM (inactive)	
COc1ccc2c(c1)C(O)(C(F)(F)F)c1cc(C(=O)C(F)(F)F)c3ccccc3c1N2 (stereo not drawn)		11.5 µM (inactive)		7.73 µM (inactive)	11.6 µM (inactive)	13.5 µM (inactive)	7.74 µM (inactive)	14.6 µM (inactive)		12.8 µM (inactive)	17.8 µM (inactive)		13.5 µM (inactive)	16.9 µM (inactive)	13.5 µM (inactive)	18.3 µM (inactive)	13.9 µM (inactive)	16.3 µM (inactive)	11 µM (inactive)
N#CCCN(CCC#N)c1ccc(/C=C2\SC(=S)NC2=O)cc1Br	68.5 µM (inactive)	86.3 µM (inactive)	> 100 µM (inactive)	> 100 µM (inactive)	> 100 µM (inactive)	> 100 µM (inactive)	76 µM (inactive)	> 100 µM (inactive)	> 100 µM (inactive)	> 100 µM (inactive)	28.6 µM (inactive)	> 100 µM (inactive)	> 100 µM (inactive)	17.8 µM (inactive)	37.8 µM (inactive)	46.9 µM (inactive)	> 100 µM (inactive)	> 100 µM (inactive)	
COC(=O)C1([C@@H]2C[C@@H](O)[C@]3(C)CC/C=C(\C)CCC[C@H](C)[C@H](O)[C@@H]2O3)CC1	88.9 µM (inactive)	52 µM (inactive)	41.9 µM (inactive)	42.5 µM (inactive)	33.9 µM (inactive)	56.1 µM (inactive)	38.5 µM (inactive)	> 100 µM (inactive)	77.6 µM (inactive)	27.2 µM (inactive)	> 100 µM (inactive)	51.2 µM (inactive)	57.7 µM (inactive)	0.286 µM (active)	92.3 µM (inactive)	81.7 µM (inactive)	95.9 µM (inactive)	91 µM (inactive)	
O=[N+]([O-])c1ccc(N/N=C/c2ccc(OCCCCCCCCCCCO)cc2)c([N+](=O)[O-])c1	2.71 µM (inactive)	2.07 µM (inactive)	6.05 µM (inactive)	1.48 µM (inactive)	5.96 µM (inactive)	4.91 µM (inactive)	2.35 µM (inactive)	4 µM (inactive)	2.48 µM (inactive)	6.37 µM (inactive)	4.24 µM (inactive)	17.4 µM (inactive)	5.19 µM (inactive)	1.94 µM (inactive)	1.91 µM (inactive)	17 µM (inactive)	4.84 µM (inactive)	1.97 µM (inactive)	
O=C1Cc2c([nH]c3ccccc23)-c2cc(Br)ccc2N1	> 100 µM (inactive)	> 100 µM (inactive)		> 100 µM (inactive)	> 100 µM (inactive)	> 100 µM (inactive)	> 100 µM (inactive)	> 100 µM (inactive)		> 100 µM (inactive)	> 100 µM (inactive)	> 100 µM (inactive)	> 100 µM (inactive)	> 100 µM (inactive)	> 100 µM (inactive)	> 100 µM (inactive)	> 100 µM (inactive)	> 100 µM (inactive)	> 100 µM (inactive)
COc1ccc2[nH]c3c(cnn4cnnc34)c2c1	> 100 µM (inactive)	> 100 µM (inactive)		> 100 µM (inactive)	> 100 µM (inactive)	> 100 µM (inactive)	> 100 µM (inactive)	> 100 µM (inactive)			> 100 µM (inactive)		> 100 µM (inactive)	> 100 µM (inactive)	> 100 µM (inactive)	23.3 µM (inactive)	> 100 µM (inactive)	> 100 µM (inactive)	> 100 µM (inactive)
